Results from US7148253B2, “4-thio coumarins” (priority 2002, dated 2006).
Where “and” joins values, the source holds several entries; their conditions need not be identical. Identical values can stand only once.

Key:
[1] = test system: HCV RNA in stably HCV RNA-replicating cell line AVA5; assay: Primary in vitro anti-HCV screen: intracellular HCV RNA levels in AVA5 cells (branched DNA assay); type: cell-based, Hepatitis C virus; conditions: for HCV % Control / HCV Copies/ml: AVA5, duplicate cultures
Procedure: Primary in vitro anti-HCV screen. The antiviral activity of test compounds were assayed in the stably HCV RNA-replicating cell line, AVA5, derived by transfection of the human hepatoblastoma cell line, Huh7 (Blight, et al., 2000, Science 290: 1972). The test compounds were added to dividing cultures once daily for three days. The media was changed with each addition of the compounds. […] Intracellular HCV RNA levels and cytotoxicity are assessed 24 hours after the last dose of compound.
(§1) Assays were conducted using a single dose of test compound. Duplicate cultures for HCV RNA levels (on 48-well plates) and triplicate cultures for cytotoxicity (on 96-well plates) are used.
(§2) Intracellular HCV RNA levels were measured using a commercial assay (Veresant®, Bayer Diagnostics, Inc. Ross, et al. (2002) J. Virol. Meth. 101:159–168, Quantitation of hepatitic C virus RNA by third generation branched DNA-based signal amplification assay). Cytotoxicity was measured using an established neutral red dye uptake assay (Korba, B. E. and J. L. Gerin. 1992. Use of a standardized cell culture assay to determine activities of nucleoside analogs against hepatitis B virus relication. Antivir. Res. 19:55–70). HCV RNA levels in the treated cultures are expressed as a percentage of the mean levels of RNA detected in untreated cultures. A level of 30% or less, HCV RNA relative to control cultures may be considered to be a positive antiviral effect. A level of 50% or less, neutral red dye uptake relative to control cultures may be considered to be a cytotoxic effect.

[2] = Primary screen cytotoxicity: neutral red dye uptake; type: cell-based, human; conditions: human; toxicity control, no antiviral activity; read-out: approximate CC90
Procedure: (§3) Primary in vitro anti-HCV screen. The antiviral activity of test compounds were assayed in the stably HCV RNA-replicating cell line, AVA5, derived by transfection of the human hepatoblastoma cell line, Huh7 (Blight, et al., 2000, Science 290: 1972). The test compounds were added to dividing cultures once daily for three days. The media was changed with each addition of the compounds. Cultures generally start the assay at 30–50% confluence and reach confluence during the last day of treatment.
as §1, §2

[3] = test system: AVA5 cell line (derived from human hepatoblastoma cell line Huh7); assay: as above; type: cell-based; conditions: for Neutral Red % Control / Neutral Red O.D.: AVA5
Procedure: as §3, §1, §2

[4] = test system: HCV replicons in AVA5 cell cultures; assay: Secondary in vitro anti-HCV dose-response assay: intracellular HCV RNA; design: Intracellular HCV RNA Levels: dose or concentration left out as unconfirmed; conditions: for Intracellular HCV RNA Levels: normalized to β-actin RNA; for S.I. (CC50/EC90): selectivity index, AVA5
Procedure: (§4) Dividing cultures of AVA5 cells are treated once daily for three days (media is changed with each addition of compound) with 4 concentrations of test compound (2 cultures per concentration). […] Intracellular HCV RNA levels and cytotoxicity are assessed 24 hours following the last treatment as described for the primary assays. The 50% and 90% effective antiviral concentrations (EC50, EC90) and the 50% cytotoxic concentrations (CC50) are calculated and used to generate Selectivity Indexes (S.I., CC50/EC50). An S.I of 10, or greater, may be considered to be a selective antiviral effect.
(§5) The values presented in Table 6 were calculated by linear regression analysis using data from all treated cultures. The standard deviation was calculated using the error of regression generated from the linear regression analysis.
Analysis of intracellular HCV RNA was performed 24 hours following the final treatment. A total of […] were treated a each concentration for each compound. HCV RNA levels were normalized to the level of β-actin RNA in each individual sample.

[5] = Secondary dose-response assay: cytotoxicity (CC50); conditions: human
Procedure: as §4, §5

[6] = test system: HCV RNA-replicating cell line AVA5; assay: Normalized Viral Assay; type: cell-based, Hepatitis C virus
Procedure: as §3

[7] = test system: AVA5 cells; assay: Secondary dose-response assay: cytotoxicity (CC50); conditions: AVA5, three days treatment; linear regression
Procedure: as §4, §5

[8] = test system: AVA5 cell line; assay: MTS Cell Viability
[9] = test system: AVA5 cell line; assay: ATP Cell Viability
[10] = AVA5, HCV RNA, linear regression

| Compound | Intracellular HCV RNA Levels [4]; 10 [genomic copies/cell] | Intracellular HCV RNA Levels [4]; 30 [genomic copies/cell] | Intracellular HCV RNA Levels [4]; 100 [genomic copies/cell] | S.I. (CC50/EC90) [4] | Normalized Viral Assay ([6]; 1 μM) | Normalized Viral Assay ([6]; 5 μM) | Normalized Viral Assay ([6]; 10 μM) | Intracellular HCV RNA Levels [4]; 300 [genomic copies/cell] | EC50 [4, 10] [µM] | EC90 [4, 10] [µM] | CC50 [7] [µM] | MTS Cell Viability ([8]; 1 μM) | MTS Cell Viability ([8]; 5 μM) | MTS Cell Viability ([8]; 10 μM) | ATP Cell Viability ([9]; 1 μM) | ATP Cell Viability ([9]; 5 μM) | ATP Cell Viability ([9]; 10 μM) | further results |
| --- | --- | --- | --- | --- | --- | --- | --- | --- | --- | --- | --- | --- | --- | --- | --- | --- | --- | --- |
| NC(=O)c1ncn([C@@H]2O[C@H](CO)[C@@H](O)[C@H]2O)n1 [Ribavirin, ribavirin, reference compound] | 1379495 ± 69125 | 640505 ± 29715 | 250445 ± 5015 | 1.9 |  |  |  |  |  |  |  |  |  |  |  |  |  | HCV % Control ([1]; 100 μM): 13 % Control and 9 % Control; HCV Copies/ml ([1]; 100 μM): 180813 Copies/ml and 115331 Copies/ml; effect on HCV RNA (treatment controls, in words) ([1]; at the control concentrations used): induced loss of HCV RNA; CC90 at 3 days [2]: ~100 µM; Neutral Red % Control ([3]; 100 μM): 18 % Control and 17 % Control; Neutral Red O.D. ([3]; 100 μM): 0.394 O.D. and 0.378 O.D.; effect on cell viability (treatment control, in words) ([3]; compared with the loss of HCV RNA): reduction in cell viability was nearly equivalent; EC50 ([4]; Hepatitis C virus, Ava5): 29 ± 2.5 µM; EC90 ([4]; Hepatitis C virus, Ava5): 140 ± 11 µM; CC50 at 3 days [5]: 54 ± 2.4 µM |
| O=c1cc(Sc2c(Cl)cccc2Cl)c2cc(F)ccc2o1 [compound 902] | 919880 ± 44000 | 332975 ± 6745 | 91645 ± 7385 | >611 | 41.92 | 12.03 | 5.61 | 12940 ± 5640 | 0.491 ± 0.024 | 5.2 ± 0.6 | > 300 | 116.05 | 86.70 | 84.52 | 97.96 | 101.74 | 62.95 | HCV % Control ([1]; 10 μM, HCV RNA as percentage of untreated cultures, listed as VQ_902): 9 % Control and 7 % Control; HCV Copies/ml ([1]; 10 μM, once daily for three days, listed as VQ_902): 124712 Copies/ml and 92446 Copies/ml; Neutral Red % Control ([3]; 10 μM, dye uptake relative to untreated cultures, listed as VQ_902): 95 % Control and 100 % Control; Neutral Red O.D. ([3]; 10 μM, listed as VQ_902): 2.122 O.D. and 2.228 O.D. |
| O=c1cc(Sc2ccc(F)cc2F)c2cc(F)ccc2o1 [compound 910] | 1176970 ± 27620 | 494605 ± 6235 | 163575 ± 6325 | >214 | 32.93 | 9.51 | 3.41 | 58165 ± 7635 | 1.4 ± 0.1 | 12 ± 1.1 | > 300 | 105.74 | 92.64 | 79.43 | 115.34 | 97.48 | 84.78 | HCV % Control ([1]; 10 μM, HCV RNA as percentage of untreated cultures, listed as VQ_910): 20 % Control and 18 % Control; HCV Copies/ml ([1]; 10 μM, once daily for three days, listed as VQ_910): 266217 Copies/ml and 246717 Copies/ml; Neutral Red % Control ([3]; 10 μM, dye uptake relative to untreated cultures, listed as VQ_910): 99 % Control and 103 % Control; Neutral Red O.D. ([3]; 10 μM, listed as VQ_910): 2.214 O.D. and 2.293 O.D. |
